The record followed here is US11008325B2, “Inhibitors of cancer invasion, attachment, and/or metastasis” (VIRGINIA COMMONWEALTH UNIVERSITY, priority 2016, dated 2021).

The test system of one test is T98G cells. In words: trans-well Matrigel invasion assay. Format: cell-based, human. The note with it: PDZ1i versus DMSO. Here is the method:
(§1) FIGS. 7A-7B. FIG. 7A. Im-PHFA, primary immortal human fetal astrocyte cells were infected with an MDA-9/Syntenin expression plasmid carrying adenovirus. 48 hrs post-infection both the control and MDA-9/Syntenin overexpressing cells were treated with DMSO or PDZ1i followed by seeding in a trans-well Matrigel invasion assay and stained after 24 hrs. FIG. 7B. T98G and U87 were treated with DMSO or PDZ1i and seeding in a trans-well Matrigel invasion assay and stained after 24 hrs. Invasion was quantified from 4 random fields. Data represents fold changes and average±S.D.
(§2) Invasion was measured using 24-well BioCoat cell culture inserts (BD Biosciences, Bedford, Mass.) with an 8-μm-porosity polyethylene terephthalate membrane coated with Matrigel Basement Membrane Matrix (100 μg/cm^2). Briefly, the Matrigel was allowed to rehydrate for 2 h at room temperature by adding warm, serum-free DMEM. The wells of the lower chamber were filled with medium containing 10% fetal bovine serum. […] Cells remaining on the upper surface of the filters were removed by wiping with a cotton swab, and invasion was determined by counting the cells that migrated to the lower side of the filter using at least 5 fields per insert at 100× magnification. […] Data from triplicate experiments were expressed as mean±95% confidence interval (CI).

The test system of test [1] is Im-PHFA cells overexpressing MDA-9/Syntenin. As to the kind of experiment: trans-well Matrigel invasion assay. It counts as cell-based, human. The note with it: after MDA-9/Syntenin overexpression. Here is the method:
as §1, §2

In a further test the test system is ARCaPM-Luc cells. As to the kind of experiment: PDZ1i pre-treated ARCaPM-Luc cells injected intravenously. Format: in vivo, athymic nude mice. On the procedure: FIG. 19A-19F. PDZ1i suppresses prostate cancer metastasis and tumor progression. FIG. 19A) Survival data for athymic nude mice in which DMSO or PDZ1i pre-treated ARCaPM cells were injected. FIG. 19B) Survival data for athymic nude mice which were injected with (n=5, each group) ARCaPM-Luc (1×10^6 cells in 100 μl saline) through an intracardiac route. Mice received either vehicle or PDZ1i every alternative day (9 injections during the first three months) and maintained until they needed to be euthanized. FIG. 19C) Survival data for C57BL/6 mice injected through the intracardiac route with RM1-Luc. Vehicle or PDZ1i was administered through intraperitoneal injection every alternate day (total 3 injections during the first week). Survival curves were generated using 6 control vehicle-treated and 5 PDZ1i-treated. Kaplan—Meier survival curves were prepared using Graph Pad software. […] Graphical representation of the average prostate weights from control and treated groups. FIG. 19E and FIG. 19F) Photomicrographs representing the histological changes in prostate sections obtained from 6-month old Hi-Myc mice receiving either vehicle (FIG. 19E) or PDZ1i (FIG. 19F).
To evaluate potential therapeutic efficacy of PDZ1i four sets of in vivo experiments were conducted. […]

Test [2] has as its system Mcl-1, Bcl-xL, Bid, MT1-MMP-PEX domain, IL20R, RKIP, Jnk2, Ubc13, SIAH1, Ship2-SAM. As to the kind of experiment: binding to panel of protein-protein interaction proteins. The note with it: 50 μM, 1:1 ligand/protein ratio. Here is the method:
In addition, the molecules are tested against a series of proteins available in the laboratory involved in protein-protein interactions including Mcl-1, Bcl-xL, Bid, MT1-MMP-PEX domain, IL20R, RKIP, Jnk2 (JIP-binding site Met labeled), Ubc13, SIAH1, and Ship2-SAM. […] In designing compounds using elements of the libraries, particular emphasis will be put on drug-like properties of the compounds. […] Additionally, the MTD and PK properties on selected compounds prior to their eventual evaluations in vivo in will be addressed. Preliminarily, PK studies with 113B7 indicate that the compound is stable and long-lived with nearly 100% bioavailability when administered IP (FIG. 53).

As for `Cc1cc(NC(=O)c2nc3[nH]c4c(c(=O)n3n2)CCC4)c(C)cc1NC(=O)CCc1nnc(-c2ccccc2)o1` [113B7, N-(2,5-dimethyl-4-(3-(5-phenyl-1,3,4-oxadiazol-2-yl)propanamido)phenyl)-8-oxo-5,6,7,8-tetrahydro-4H-cyclopenta[d][1,2,4]triazolo[1,5-a]pyrimidine-2-carboxamide], in the test with T98G cells, the invasion entry is “effectively inhibited invasion”. In addition, the MDA-9/Syntenin-induced invasion entry in test [1] is “effective in inhibiting MDA-9/Syntenin-induced invasion”. The “cancer cell concentrations in the lungs” value with ARCaPM-Luc cells (cells pre-treated with 50 μM PDZ1i) is “lower cancer cell concentrations in the lungs”. The survival entry in the test with ARCaPM-Luc cells (cells pre-treated with PDZ1i) is “survived longer”. Further, the “binding to protein-protein interaction panel” value in test [2] is given as “no appreciable binding”.
